Some test systems named below: OVCAR-8 ovarian; UO-31 renal; TK-10 renal; RXF 393 renal; OVCAR-4 ovarian; HL-60(TB) leukemia; DU-145 prostate; HCC-2998 colon; SF-539 CNS; EKVX NSCLC.
Holding throughout (experiment): NCI-60 cell line screen, 48 h

The structures appear in SMILES notation. Several values for one entry are separate records, joined by “and”; a condition that tells them apart may be missing. Identical values can stand only once.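 48-hour exposure; five concentrations; linearly interpolated endpoints. GI50 = concentration required for 50% inhibition of growth. TGI is the concentration that stops growth completely.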 Where only a bound is given, the exact number is not on record here.

With `Nc1c(C(=O)c2cccc(CCCN3CCOCC3)c2)cnn1-c1ccc(F)cc1`, the GI50 in the test with OVCAR-8 ovarian, in the test with UO-31 renal, in the test with TK-10 renal, in the test with RXF 393 renal, in the test with OVCAR-4 ovarian and in the test on HL-60(TB) leukemia was over 25 µM throughout. Moreover, the GI50 in the test on DU-145 prostate, with HCC-2998 colon and in the test on SF-539 CNS was over 25 µM in each case. In addition, the TGI in the test on OVCAR-8 ovarian, in the test with UO-31 renal, in the test with TK-10 renal, with RXF 393 renal, in the test on OVCAR-4 ovarian and in the test with HL-60(TB) leukemia was over 25 µM throughout. For the same compound, the TGI in the test with DU-145 prostate, in the test on HCC-2998 colon and with SF-539 CNS was over 25 µM each time.
With `COc1cc(NS(C)(=O)=O)ccc1Nc1c2ccc([N+](=O)[O-])cc2nc2c(C)cccc12`, the GI50 in the test on OVCAR-8 ovarian is 1.08 µM; with UO-31 renal, 1.22 µM; in the test with TK-10 renal, 2.07 µM; with RXF 393 renal it was 1.65 µM; with OVCAR-4 ovarian, 3.32 µM; with HL-60(TB) leukemia, 0.302 µM. For the same compound, the GI50 with DU-145 prostate was 0.133 µM; in the test with HCC-2998 colon it was 2.07 µM; in the test on SF-539 CNS it was 0.241 µM. Further, the TGI with OVCAR-8 ovarian was determined as 14 µM; with UO-31 renal, 11.4 µM; with TK-10 renal, 9.35 µM; in the test on RXF 393 renal it was 6.35 µM; in the test on OVCAR-4 ovarian, 19.1 µM; in the test with HL-60(TB) leukemia, 3.57 µM. The TGI with DU-145 prostate amounted to 10.7 µM; with HCC-2998 colon, 7.28 µM; with SF-539 CNS, 1.97 µM.
`O=C(O)CCNc1ccccc1C(=O)O`: the TGI with OVCAR-8 ovarian, in the test with UO-31 renal, with TK-10 renal, in the test with RXF 393 renal, with EKVX NSCLC and with OVCAR-4 ovarian was over 100 µM in each case. Moreover, the TGI in the test with HL-60(TB) leukemia, in the test on DU-145 prostate and with SF-539 CNS was over 100 µM throughout.
On to `COc1ccccc1NC(=O)c1sc2nc3c(cc2c1N)C(=O)CCC3`, for which the GI50 with OVCAR-8 ovarian was 3.97 µM; in the test on RXF 393 renal, 1.83 µM; in the test with HL-60(TB) leukemia it was over 100 µM; in the test on DU-145 prostate, over 100 µM; with HCC-2998 colon, over 100 µM; with SF-539 CNS it was 3.97 µM. Further, the TGI with OVCAR-8 ovarian is over 100 µM; in the test on RXF 393 renal, 9.33 µM; with HL-60(TB) leukemia, over 100 µM; in the test on DU-145 prostate it was over 100 µM; in the test on HCC-2998 colon it was over 100 µM; in the test on SF-539 CNS, over 100 µM.
As to `O=C(O)C/C(=C\c1ccco1)C(=O)O`, the TGI in the test with OVCAR-8 ovarian, in the test on UO-31 renal, in the test with TK-10 renal, with RXF 393 renal, with EKVX NSCLC and with OVCAR-4 ovarian was over 100 µM throughout. The TGI in the test on HL-60(TB) leukemia, in the test on DU-145 prostate and in the test with SF-539 CNS was over 100 µM each time.
Turning to `COc1ccc(OC)c(/C=N/NC(=O)Cc2csc3nc(-c4ccc(Br)cc4)cn23)c1`, the GI50 in the test on OVCAR-8 ovarian is 11.6 µM; with UO-31 renal, 60.6 µM; with TK-10 renal it was 16.3 µM; with RXF 393 renal, 19 µM; in the test with EKVX NSCLC, 17.1 µM; in the test with OVCAR-4 ovarian it was 28.4 µM. For the same compound, the GI50 with DU-145 prostate was 17.9 µM; in the test with HCC-2998 colon it was 10 µM; with SF-539 CNS, 11.2 µM. Further, the TGI in the test with OVCAR-8 ovarian was 38.2 µM; in the test on UO-31 renal it was over 100 µM; in the test with TK-10 renal it was 51.2 µM; with RXF 393 renal, 67.4 µM; in the test with EKVX NSCLC it was 57.6 µM; in the test on OVCAR-4 ovarian it was over 100 µM. Besides, the TGI in the test on DU-145 prostate was found to be 48 µM; in the test with HCC-2998 colon, 34.9 µM; in the test with SF-539 CNS, 24.4 µM.
Take `CC(=O)N[C@@H](Cc1ccc(OP(=O)(O)O)cc1)C(=O)N[C@H]1CCC(=O)N2CCC[C@@H](C(=O)NCc3ccc(Cl)cc3)N2C1=O`: the GI50 with OVCAR-8 ovarian, with UO-31 renal, in the test with TK-10 renal, in the test with RXF 393 renal, in the test with OVCAR-4 ovarian and in the test with HL-60(TB) leukemia was over 25 µM in each case. The GI50 in the test on DU-145 prostate, in the test with HCC-2998 colon and with SF-539 CNS was over 25 µM in each case. Moreover, the TGI with OVCAR-8 ovarian, in the test with UO-31 renal, with TK-10 renal, in the test on RXF 393 renal, in the test on OVCAR-4 ovarian and in the test on HL-60(TB) leukemia was over 25 µM throughout. For the same compound, the TGI in the test with DU-145 prostate, in the test on HCC-2998 colon and in the test on SF-539 CNS was over 25 µM throughout.
Turning to `COc1cc(C2c3[nH]c4ccccc4c3C[C@H]3COC(=O)N23)cc(OC)c1OC` (stereo partly specified), the GI50 is under 0.01 µM in the test with OVCAR-8 ovarian; under 0.01 µM in the test with UO-31 renal; under 0.01 µM in the test with TK-10 renal; 0.507 µM with OVCAR-4 ovarian; under 0.01 µM with HL-60(TB) leukemia; under 0.01 µM in the test on HCC-2998 colon. Further, the GI50 in the test with SF-539 CNS was under 0.01 µM. Besides, the TGI with OVCAR-8 ovarian is 1.71 µM and 0.389 µM; with UO-31 renal, 50.1 µM; in the test on TK-10 renal, over 100 µM; in the test on EKVX NSCLC, over 100 µM; in the test on OVCAR-4 ovarian it was over 100 µM; with HL-60(TB) leukemia, 0.0961 µM and < 0.01 µM. The compound further yielded a TGI in the test with DU-145 prostate of 6.25 µM.
As to `O=C(Nc1ccc(Cl)c(Cl)c1)c1cccc(NC2=C(Cl)C(=O)N(Cc3ccccc3)C2=O)c1`, the GI50 with OVCAR-8 ovarian is 31.6 µM; in the test with UO-31 renal, 34.6 µM; in the test with TK-10 renal, over 100 µM; with RXF 393 renal, 25.1 µM; in the test on EKVX NSCLC, 20.2 µM; in the test on OVCAR-4 ovarian, 48.3 µM. In addition, the GI50 with HL-60(TB) leukemia was 45.8 µM; in the test with DU-145 prostate, 20.6 µM; in the test on SF-539 CNS, 7.75 µM. Besides, the TGI in the test with OVCAR-8 ovarian is 89.5 µM; in the test with UO-31 renal, over 100 µM; in the test on TK-10 renal, over 100 µM; in the test with RXF 393 renal, 65.6 µM; in the test with EKVX NSCLC, 64.5 µM; with OVCAR-4 ovarian, over 100 µM. The values for the TGI in the test on HL-60(TB) leukemia, in the test on DU-145 prostate and in the test with SF-539 CNS were over 100 µM, over 100 µM and 38.2 µM, respectively.
As to `Cc1ccc2c(c1)C(C)Cc1c(ncnc1-n1cnc3ccccc31)N2C` (stereo unspecified), the GI50 is 0.592 µM in the test with OVCAR-8 ovarian; 0.939 µM in the test on UO-31 renal; 13.1 µM with TK-10 renal; 0.511 µM in the test with EKVX NSCLC; 2.51 µM in the test on OVCAR-4 ovarian; 0.255 µM with HL-60(TB) leukemia. The GI50 was 0.529 µM with DU-145 prostate, 1.24 µM with HCC-2998 colon and 0.337 µM in the test with SF-539 CNS. The TGI with OVCAR-8 ovarian turned out to be 32.7 µM; with UO-31 renal, 17.9 µM; in the test with TK-10 renal, 29.4 µM; in the test with EKVX NSCLC, 17.5 µM; with OVCAR-4 ovarian it was 22.5 µM; in the test on HL-60(TB) leukemia, 0.705 µM. The figures for the TGI in the test on DU-145 prostate, in the test with HCC-2998 colon and in the test on SF-539 CNS were 14.4 µM, 13.6 µM and 13.5 µM, respectively.
On to `Cc1c(N2CCCC2)cc2c(c1NC(=O)c1ccccc1Cl)C(C)(C)CC2(C)C`, for which the TGI in the test on OVCAR-8 ovarian turned out to be 32.6 µM; in the test on UO-31 renal, 26.4 µM; in the test on TK-10 renal it was 23.1 µM; in the test on RXF 393 renal, 27.5 µM; in the test on EKVX NSCLC, 29.9 µM; with OVCAR-4 ovarian, 33.3 µM. The TGI was determined as 29.3 µM with DU-145 prostate, 25.9 µM in the test with HCC-2998 colon and 39.7 µM with SF-539 CNS.
With `FC(F)(F)c1nc(N2CCCC2)ncc1-c1nnnn1-c1ccc(Cl)cc1`, the GI50 in the test on OVCAR-8 ovarian was 25 µM; in the test with UO-31 renal, 16.8 µM; with TK-10 renal it was 15.4 µM; with RXF 393 renal it was 14.9 µM; with EKVX NSCLC, 29 µM; in the test with OVCAR-4 ovarian, 6.7 µM. In addition, the values for the GI50 in the test with DU-145 prostate, with HCC-2998 colon and in the test on SF-539 CNS were 48.4 µM, 26.7 µM and 39.8 µM, respectively. Besides, the TGI with OVCAR-8 ovarian was over 100 µM; in the test with UO-31 renal it was over 100 µM; in the test on TK-10 renal, 75.6 µM; in the test on RXF 393 renal it was 51.7 µM; in the test on EKVX NSCLC, over 100 µM; in the test with OVCAR-4 ovarian, 74.8 µM. Further, the TGI in the test with DU-145 prostate was over 100 µM; in the test on HCC-2998 colon, 72.2 µM; in the test on SF-539 CNS, over 100 µM.
On to `COc1cccc(C2c3cc4c(cc3OC(C)(N3CCCC3)C2C)OCO4)c1OC` (stereo unspecified), for which the TGI was determined as 98.1 µM with OVCAR-8 ovarian; 37.5 µM in the test on UO-31 renal; 89.1 µM in the test on TK-10 renal; 86.7 µM in the test on RXF 393 renal; 78.2 µM with EKVX NSCLC; 46.1 µM in the test on OVCAR-4 ovarian. Also, the TGI in the test on HL-60(TB) leukemia came to 22.8 µM; in the test on DU-145 prostate it was 49.9 µM; with HCC-2998 colon it was 53.2 µM.
As to `COC(=O)CCC(=O)C(=O)OC`, the GI50 with OVCAR-8 ovarian was 63200 µM; with UO-31 renal it was 15000 µM; in the test on RXF 393 renal, 30300 µM; in the test on EKVX NSCLC it was 20600 µM; in the test on OVCAR-4 ovarian, 65000 µM; in the test with HL-60(TB) leukemia, 23600 µM. Further, the GI50 was 31700 µM in the test on DU-145 prostate, 25300 µM in the test on HCC-2998 colon and 24500 µM with SF-539 CNS. Further, the TGI turned out to be 85700 µM in the test on UO-31 renal, 95100 µM with RXF 393 renal, 61600 µM with HL-60(TB) leukemia and 73000 µM with HCC-2998 colon.

Source of the values: PubChem BioAssay (NCI).
